We go through three compounds from ChEMBL document CHEMBL1201862, “PubChem BioAssay data set” (2004).

Active and inactive are the calls of the source.

Common to all, as to type: functional
The target of experiment [1] is T1, Serine/threonine-protein kinase TAO1 (Homo sapiens, UniProt Q7L7X3).
T1 sequence (Q7L7X3 whole entry): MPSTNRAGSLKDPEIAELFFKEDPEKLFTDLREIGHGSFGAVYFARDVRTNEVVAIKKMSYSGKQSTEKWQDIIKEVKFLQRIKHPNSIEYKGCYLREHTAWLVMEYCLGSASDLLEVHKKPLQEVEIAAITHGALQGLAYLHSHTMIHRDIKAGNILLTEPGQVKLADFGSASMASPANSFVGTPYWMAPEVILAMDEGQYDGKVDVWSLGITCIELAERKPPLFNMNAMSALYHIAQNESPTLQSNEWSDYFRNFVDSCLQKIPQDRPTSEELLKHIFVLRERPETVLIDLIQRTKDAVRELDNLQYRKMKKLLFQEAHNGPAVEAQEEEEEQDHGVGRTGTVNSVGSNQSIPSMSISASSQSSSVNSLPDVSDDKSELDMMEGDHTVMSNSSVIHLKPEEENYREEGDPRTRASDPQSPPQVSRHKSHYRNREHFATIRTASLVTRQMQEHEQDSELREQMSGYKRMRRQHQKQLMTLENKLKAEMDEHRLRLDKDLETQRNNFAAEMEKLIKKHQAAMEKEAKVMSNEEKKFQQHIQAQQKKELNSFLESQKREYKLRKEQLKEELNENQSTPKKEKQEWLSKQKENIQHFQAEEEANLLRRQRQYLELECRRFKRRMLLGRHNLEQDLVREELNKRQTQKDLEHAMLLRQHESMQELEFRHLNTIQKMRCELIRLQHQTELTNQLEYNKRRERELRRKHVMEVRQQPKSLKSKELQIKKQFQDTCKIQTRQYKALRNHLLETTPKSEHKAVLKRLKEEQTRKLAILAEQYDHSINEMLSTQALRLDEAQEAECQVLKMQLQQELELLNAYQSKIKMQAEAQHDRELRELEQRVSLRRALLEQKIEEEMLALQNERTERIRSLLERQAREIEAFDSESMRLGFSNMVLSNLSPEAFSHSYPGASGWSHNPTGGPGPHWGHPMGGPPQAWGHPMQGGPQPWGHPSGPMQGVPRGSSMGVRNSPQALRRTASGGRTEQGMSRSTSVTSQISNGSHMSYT

Experiment [2] deals with Cyclin-dependent kinase 7 (Homo sapiens, UniProt P50613).
Sequence of Cyclin-dependent kinase 7 (P50613 whole entry): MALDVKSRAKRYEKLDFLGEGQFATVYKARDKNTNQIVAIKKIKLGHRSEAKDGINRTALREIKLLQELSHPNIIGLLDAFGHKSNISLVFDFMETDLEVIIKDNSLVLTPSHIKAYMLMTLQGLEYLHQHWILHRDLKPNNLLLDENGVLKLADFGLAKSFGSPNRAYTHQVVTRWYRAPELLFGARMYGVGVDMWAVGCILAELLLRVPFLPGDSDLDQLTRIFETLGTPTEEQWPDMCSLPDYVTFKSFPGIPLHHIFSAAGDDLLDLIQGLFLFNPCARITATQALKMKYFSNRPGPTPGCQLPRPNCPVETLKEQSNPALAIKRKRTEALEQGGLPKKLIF
Experiment [3] deals with Macrophage-stimulating protein receptor (Homo sapiens, UniProt Q04912). Nature of the experiment: Navigating the Kinome. Panel member name: MST1R.
Sequence of Macrophage-stimulating protein receptor (Q04912 25-304 limits assumed): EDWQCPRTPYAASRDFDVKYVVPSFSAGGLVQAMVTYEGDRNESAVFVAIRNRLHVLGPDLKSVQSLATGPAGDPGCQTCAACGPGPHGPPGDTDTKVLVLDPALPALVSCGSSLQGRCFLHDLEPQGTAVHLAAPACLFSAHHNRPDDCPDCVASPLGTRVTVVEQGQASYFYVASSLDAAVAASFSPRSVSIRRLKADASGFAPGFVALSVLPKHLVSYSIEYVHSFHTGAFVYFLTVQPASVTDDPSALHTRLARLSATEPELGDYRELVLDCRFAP
Sequence of Macrophage-stimulating protein receptor (Q04912 310-1400 limits assumed): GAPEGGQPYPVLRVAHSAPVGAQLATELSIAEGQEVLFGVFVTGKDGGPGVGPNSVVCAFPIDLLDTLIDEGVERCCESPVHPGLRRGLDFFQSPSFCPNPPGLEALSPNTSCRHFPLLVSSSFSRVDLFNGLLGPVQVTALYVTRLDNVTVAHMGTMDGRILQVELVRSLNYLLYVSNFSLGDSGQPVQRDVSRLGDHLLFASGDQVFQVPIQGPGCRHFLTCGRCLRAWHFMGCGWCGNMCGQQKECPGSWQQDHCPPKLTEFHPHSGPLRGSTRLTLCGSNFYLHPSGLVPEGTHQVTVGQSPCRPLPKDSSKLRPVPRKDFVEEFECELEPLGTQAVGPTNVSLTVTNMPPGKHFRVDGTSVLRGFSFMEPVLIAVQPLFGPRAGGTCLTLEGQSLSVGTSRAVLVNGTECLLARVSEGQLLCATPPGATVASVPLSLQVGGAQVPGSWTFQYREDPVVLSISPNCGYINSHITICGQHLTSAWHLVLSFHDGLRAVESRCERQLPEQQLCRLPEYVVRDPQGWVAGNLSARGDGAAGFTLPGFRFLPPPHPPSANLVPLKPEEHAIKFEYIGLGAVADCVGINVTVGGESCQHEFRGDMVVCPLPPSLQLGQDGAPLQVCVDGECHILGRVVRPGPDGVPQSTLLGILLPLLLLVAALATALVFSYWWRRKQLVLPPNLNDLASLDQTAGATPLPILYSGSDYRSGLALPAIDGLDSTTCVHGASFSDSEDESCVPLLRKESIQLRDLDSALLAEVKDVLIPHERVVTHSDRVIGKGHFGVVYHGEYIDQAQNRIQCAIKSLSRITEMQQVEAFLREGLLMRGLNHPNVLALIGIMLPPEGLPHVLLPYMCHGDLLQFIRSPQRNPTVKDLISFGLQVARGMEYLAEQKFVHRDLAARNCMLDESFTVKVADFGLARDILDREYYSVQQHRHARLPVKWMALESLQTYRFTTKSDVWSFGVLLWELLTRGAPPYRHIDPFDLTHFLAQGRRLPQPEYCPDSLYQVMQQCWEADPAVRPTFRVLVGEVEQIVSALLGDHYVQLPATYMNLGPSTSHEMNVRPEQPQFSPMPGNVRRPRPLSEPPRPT
For experiment [4], the target named is Fibroblast growth factor receptor 1 (Homo sapiens, UniProt P11362).
Experiment [5] deals with Vascular endothelial growth factor receptor 2 (Homo sapiens, UniProt P35968).
Sequence of Vascular endothelial growth factor receptor 2 (P35968 whole entry): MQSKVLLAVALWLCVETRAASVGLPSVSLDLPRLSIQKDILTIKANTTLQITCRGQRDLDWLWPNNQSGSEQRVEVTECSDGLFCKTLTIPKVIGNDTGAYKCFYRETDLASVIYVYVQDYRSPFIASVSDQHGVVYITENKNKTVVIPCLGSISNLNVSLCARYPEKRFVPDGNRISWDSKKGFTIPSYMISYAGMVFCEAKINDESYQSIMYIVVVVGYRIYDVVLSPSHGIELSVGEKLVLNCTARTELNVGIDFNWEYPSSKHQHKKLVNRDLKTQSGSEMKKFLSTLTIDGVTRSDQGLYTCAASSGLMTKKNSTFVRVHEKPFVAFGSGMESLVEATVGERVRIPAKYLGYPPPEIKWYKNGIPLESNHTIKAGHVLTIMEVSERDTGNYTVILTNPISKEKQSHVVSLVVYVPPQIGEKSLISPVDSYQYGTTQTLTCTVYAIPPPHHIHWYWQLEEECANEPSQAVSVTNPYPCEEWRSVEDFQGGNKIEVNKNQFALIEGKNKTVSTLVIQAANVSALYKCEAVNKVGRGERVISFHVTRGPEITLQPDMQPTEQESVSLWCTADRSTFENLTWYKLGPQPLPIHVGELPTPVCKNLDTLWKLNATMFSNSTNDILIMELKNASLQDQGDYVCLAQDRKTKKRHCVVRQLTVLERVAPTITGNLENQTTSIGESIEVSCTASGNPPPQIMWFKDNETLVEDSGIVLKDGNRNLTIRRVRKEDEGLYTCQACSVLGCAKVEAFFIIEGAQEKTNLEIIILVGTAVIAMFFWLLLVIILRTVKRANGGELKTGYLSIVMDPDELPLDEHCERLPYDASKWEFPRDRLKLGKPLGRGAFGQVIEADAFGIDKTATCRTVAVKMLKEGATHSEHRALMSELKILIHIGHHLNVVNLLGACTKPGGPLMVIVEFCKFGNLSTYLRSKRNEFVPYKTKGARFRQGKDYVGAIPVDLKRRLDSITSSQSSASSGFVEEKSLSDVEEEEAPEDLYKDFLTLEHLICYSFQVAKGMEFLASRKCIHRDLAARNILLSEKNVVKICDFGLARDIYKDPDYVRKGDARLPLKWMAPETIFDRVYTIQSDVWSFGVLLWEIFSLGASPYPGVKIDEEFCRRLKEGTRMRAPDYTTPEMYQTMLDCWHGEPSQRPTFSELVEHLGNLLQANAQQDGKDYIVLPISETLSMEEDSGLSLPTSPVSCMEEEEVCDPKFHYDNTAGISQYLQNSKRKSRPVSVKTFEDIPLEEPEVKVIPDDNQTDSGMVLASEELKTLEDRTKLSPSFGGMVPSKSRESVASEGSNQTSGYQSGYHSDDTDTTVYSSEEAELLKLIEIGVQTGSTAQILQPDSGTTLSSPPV
For experiment [6], the target named is Insulin-like growth factor 1 receptor (Homo sapiens, UniProt P08069). The experiment is described as follows: Navigating the Kinome. Panel member name: IGF1R.
Sequence of Insulin-like growth factor 1 receptor (P08069 31-736 limits assumed): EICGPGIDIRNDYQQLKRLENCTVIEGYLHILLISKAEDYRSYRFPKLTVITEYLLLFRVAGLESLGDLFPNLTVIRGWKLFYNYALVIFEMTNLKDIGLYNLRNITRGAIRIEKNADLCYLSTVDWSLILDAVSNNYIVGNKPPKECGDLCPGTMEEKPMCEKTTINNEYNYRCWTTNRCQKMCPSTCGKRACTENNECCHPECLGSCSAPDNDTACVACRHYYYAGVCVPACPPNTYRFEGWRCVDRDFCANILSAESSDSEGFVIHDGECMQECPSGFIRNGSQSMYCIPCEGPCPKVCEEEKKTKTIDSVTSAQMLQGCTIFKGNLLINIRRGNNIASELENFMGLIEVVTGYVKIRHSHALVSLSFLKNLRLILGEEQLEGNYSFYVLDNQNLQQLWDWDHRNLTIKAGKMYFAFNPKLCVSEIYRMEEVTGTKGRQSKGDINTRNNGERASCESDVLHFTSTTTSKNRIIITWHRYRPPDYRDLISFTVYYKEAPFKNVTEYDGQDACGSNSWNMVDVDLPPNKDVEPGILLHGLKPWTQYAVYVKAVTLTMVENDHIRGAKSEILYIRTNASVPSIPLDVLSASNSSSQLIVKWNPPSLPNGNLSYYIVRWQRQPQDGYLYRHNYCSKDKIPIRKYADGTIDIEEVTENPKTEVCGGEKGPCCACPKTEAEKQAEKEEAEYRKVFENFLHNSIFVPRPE
Sequence of Insulin-like growth factor 1 receptor (P08069 741-1367 limits assumed): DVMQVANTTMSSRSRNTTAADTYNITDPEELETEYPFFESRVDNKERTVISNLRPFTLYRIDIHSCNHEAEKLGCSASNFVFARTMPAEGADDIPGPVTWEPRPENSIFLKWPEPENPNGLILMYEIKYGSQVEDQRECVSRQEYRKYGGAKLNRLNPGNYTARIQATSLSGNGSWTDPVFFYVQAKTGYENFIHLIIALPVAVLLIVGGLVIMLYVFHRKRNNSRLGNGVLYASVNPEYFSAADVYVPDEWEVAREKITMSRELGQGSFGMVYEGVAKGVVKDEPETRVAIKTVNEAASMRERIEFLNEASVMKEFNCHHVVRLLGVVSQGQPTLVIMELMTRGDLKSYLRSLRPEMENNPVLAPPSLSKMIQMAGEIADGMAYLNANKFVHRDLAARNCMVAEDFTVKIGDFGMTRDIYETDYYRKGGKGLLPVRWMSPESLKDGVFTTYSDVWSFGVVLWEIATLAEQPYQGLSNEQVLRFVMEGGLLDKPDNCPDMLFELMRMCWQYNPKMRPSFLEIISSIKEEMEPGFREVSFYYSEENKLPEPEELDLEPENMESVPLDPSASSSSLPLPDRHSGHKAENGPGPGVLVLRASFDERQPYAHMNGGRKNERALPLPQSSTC
The target in experiment [7] is Tyrosine-protein kinase Fyn (Homo sapiens, UniProt P06241).
The target in experiment [8] is T2, Serine/threonine-protein kinase D3 (Homo sapiens, UniProt O94806).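 Also: determined within a kinase panel screen, with PRKCN as the panel member.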
T2 sequence (O94806 whole entry): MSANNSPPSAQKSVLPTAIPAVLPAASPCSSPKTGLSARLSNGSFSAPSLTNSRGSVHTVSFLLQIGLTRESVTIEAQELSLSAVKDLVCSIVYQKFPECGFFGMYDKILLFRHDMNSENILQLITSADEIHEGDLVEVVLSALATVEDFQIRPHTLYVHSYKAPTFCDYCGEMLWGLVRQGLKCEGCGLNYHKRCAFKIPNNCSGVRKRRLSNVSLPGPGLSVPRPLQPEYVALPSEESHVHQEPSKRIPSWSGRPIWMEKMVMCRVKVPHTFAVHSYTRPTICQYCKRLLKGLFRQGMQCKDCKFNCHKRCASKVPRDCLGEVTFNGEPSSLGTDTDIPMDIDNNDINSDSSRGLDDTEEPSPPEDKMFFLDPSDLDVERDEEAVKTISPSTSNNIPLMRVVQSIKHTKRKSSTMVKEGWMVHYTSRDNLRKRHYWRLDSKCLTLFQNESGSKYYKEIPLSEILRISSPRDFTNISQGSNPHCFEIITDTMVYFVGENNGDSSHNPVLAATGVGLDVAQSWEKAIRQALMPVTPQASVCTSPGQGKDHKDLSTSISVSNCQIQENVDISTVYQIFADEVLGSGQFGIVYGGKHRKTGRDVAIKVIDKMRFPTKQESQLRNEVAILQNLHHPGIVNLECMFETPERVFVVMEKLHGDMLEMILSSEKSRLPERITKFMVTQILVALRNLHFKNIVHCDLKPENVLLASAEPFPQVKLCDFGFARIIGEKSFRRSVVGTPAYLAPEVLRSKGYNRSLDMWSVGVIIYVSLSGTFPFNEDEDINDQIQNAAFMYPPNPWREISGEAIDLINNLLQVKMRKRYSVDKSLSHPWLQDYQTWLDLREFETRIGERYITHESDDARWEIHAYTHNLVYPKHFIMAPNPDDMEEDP

A further experiment addresses T3, Activin receptor type-1 (Homo sapiens, UniProt Q04771).
T3 sequence (Q04771 whole entry): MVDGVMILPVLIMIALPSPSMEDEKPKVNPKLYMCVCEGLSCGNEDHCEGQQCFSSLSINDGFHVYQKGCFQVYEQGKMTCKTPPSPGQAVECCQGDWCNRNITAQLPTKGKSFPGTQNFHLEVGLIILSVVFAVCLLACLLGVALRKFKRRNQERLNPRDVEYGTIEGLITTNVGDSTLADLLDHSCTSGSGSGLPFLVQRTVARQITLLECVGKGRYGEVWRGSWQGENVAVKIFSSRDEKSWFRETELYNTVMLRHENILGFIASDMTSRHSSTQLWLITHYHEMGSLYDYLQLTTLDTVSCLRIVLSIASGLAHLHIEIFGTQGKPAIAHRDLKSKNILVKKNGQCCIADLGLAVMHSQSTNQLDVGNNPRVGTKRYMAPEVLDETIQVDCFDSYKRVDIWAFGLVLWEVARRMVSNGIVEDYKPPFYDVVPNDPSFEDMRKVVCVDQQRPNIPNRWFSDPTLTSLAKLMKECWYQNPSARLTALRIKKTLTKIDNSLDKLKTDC
The experiment is described as follows: Navigating the Kinome. Panel member name: ACVR1.

Experiment [9] addresses 5'-AMP-activated protein kinase catalytic subunit alpha-1 (Homo sapiens, UniProt Q13131).
In experiment [10] the target is Platelet-derived growth factor receptor alpha (Homo sapiens, UniProt P16234). The experiment is described as follows: Navigating the Kinome. Panel member name: PDGFRA.
In experiment [11] the target is Dual specificity protein kinase CLK2 (Homo sapiens, UniProt P49760).
Experiment [12] addresses Hepatocyte growth factor receptor (Homo sapiens, UniProt P08581).
The target in experiment [13] is Cyclin-dependent kinase 8 (Homo sapiens, UniProt P49336). The experiment is described as follows: Navigating the Kinome. Panel member name: CDK8.

Sequence of 5'-AMP-activated protein kinase catalytic subunit alpha-1 (Q13131 whole entry): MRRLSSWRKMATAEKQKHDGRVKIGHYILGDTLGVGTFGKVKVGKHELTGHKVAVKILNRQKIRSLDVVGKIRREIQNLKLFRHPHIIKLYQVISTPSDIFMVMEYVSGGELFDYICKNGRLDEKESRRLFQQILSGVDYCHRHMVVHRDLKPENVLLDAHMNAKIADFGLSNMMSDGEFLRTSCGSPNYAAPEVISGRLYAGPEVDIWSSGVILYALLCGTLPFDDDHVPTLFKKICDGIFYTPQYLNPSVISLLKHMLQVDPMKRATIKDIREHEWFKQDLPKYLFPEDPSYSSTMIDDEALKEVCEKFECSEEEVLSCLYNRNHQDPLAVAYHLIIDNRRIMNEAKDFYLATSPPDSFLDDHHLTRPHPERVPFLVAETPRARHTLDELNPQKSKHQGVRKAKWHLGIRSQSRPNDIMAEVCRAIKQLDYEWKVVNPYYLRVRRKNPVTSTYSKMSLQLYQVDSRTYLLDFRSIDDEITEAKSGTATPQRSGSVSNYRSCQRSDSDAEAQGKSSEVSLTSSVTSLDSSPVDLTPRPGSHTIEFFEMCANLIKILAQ

In the case of `COc1cccc(C(C)NC(=O)c2sc(-c3ccncc3)nc2C)c1` (configuration not stated), the Ki was > 6.31 µM (inactive) in experiment [1]; > 3.98 µM (inactive) in experiment [2]; > 3.98 µM (inactive) in experiment [3]; > 3.98 µM (inactive) in [4]; > 2.51 µM (inactive) in experiment [5]; > 2.51 µM (inactive) in [6]. In addition, the Ki in [7] was > 6.31 µM (inactive); in experiment [8], > 3.98 µM (inactive); at Activin receptor type-1, > 3.98 µM (inactive); in experiment [9], > 3.16 µM (inactive); in experiment [10], > 2.51 µM (inactive); in [11], > 3.98 µM (inactive). In addition, the Ki in experiment [12] is > 2.51 µM (inactive); in experiment [13] it was > 3.98 µM (inactive).

For the compound `Oc1ccc(-c2nc(-c3ccncc3)c(-c3ccc(F)cc3)[nH]2)cc1` [SB-202190], the Ki is > 6.31 µM (inactive) in experiment [1]; > 3.98 µM (inactive) in [2]; > 3.98 µM (inactive) in experiment [3]; > 3.98 µM (inactive) in experiment [4]; > 2 µM (inactive) in [5]; 1.26 µM (active) in experiment [6]. Also, the Ki in experiment [7] is > 6.31 µM (inactive); in experiment [8], 2.51 µM (active); on Activin receptor type-1 it was > 3.16 µM (inactive); in [9], > 3.16 µM (inactive); in experiment [10], > 3.16 µM (inactive); in experiment [11], > 3.98 µM (inactive). Further, the Ki in [12] is > 2.51 µM (inactive); in [13] it was > 3.98 µM (inactive).

On to `CCCCC(=O)Nc1cc(-c2c[nH]c3ncccc23)cc(Cl)n1`, for which the Ki in [1] was > 6.31 µM (inactive); in [2], > 3.98 µM (inactive); in [3] it was > 3.98 µM (inactive); in [4] it was > 3.98 µM (inactive); in experiment [5] it was > 2.51 µM (inactive); in [6], > 2.51 µM (inactive). For the same compound, the Ki in experiment [7] was > 6.31 µM (inactive); in experiment [8], > 3.98 µM (inactive); on Activin receptor type-1, > 3.98 µM (inactive); in experiment [9] it was > 3.16 µM (inactive); in [10], > 2.51 µM (inactive); in experiment [11], 1.58 µM (active). Also, the Ki in experiment [12] is > 2.51 µM (inactive); in [13], 0.0158 µM (active).

Broadly, the Ki is a measure of affinity in units of concentration, obtained from inhibition or displacement.
